Assay type in all cases: cell-based
In test [1] the test system is tamoxifen-sensitive ER+ MCF-7:WS8 breast cancer cells. The experiment in a line: Growth inhibition in tamoxifen-sensitive ER+ MCF-7:WS8 breast cancer cells. To be noted: MCF7:WS8, MCF-7:WS8 cells; for IC50: assayed from 0.01 nM to 1 uM; for Emax: read-out: MCF7:WS8 Max efficacy (%).
In test [2] the test system is tamoxifen-resistant MCF-7:5C breast cancer cells. The experiment in a line: Growth inhibition in tamoxifen-resistant MCF-7:5C breast cancer cells. Particulars: MCF7:5C, MCF-7:5C cells; for IC50: assayed from 0.01 nM to 1 uM; for Emax: read-out: MCF7:5C Max efficacy (%).
Test [3] has as its system ER (ERE). The experiment in a line: ER antagonism (ERE). The protocol:
Example compounds were assayed to determine ER downregulation, relative binding affinity, and ER antagonism.

Molecules are shown by their SMILES.

For the compound `O=C(c1ccc(O)cc1)c1sc2cc(O)ccc2c1Oc1ccc(OCCN2CC(CF)C2)cc1` [Compound 1, (3-(4-(2-(3-(fluoromethyl)azetidin-1-yl)ethoxy)phenoxy)-6-hydroxybenzo[b]thiophen-2-yl)(4-hydroxyphenyl) methanone], the IC50 stood at 1.1 ± 0.1 nM in test [1], 1.2 ± 0.3 nM in test [2] and 6.4 ± 0.4 nM in test [3]. The Emax in test [1] amounted to 75%; in test [2], 30%.

For the compound `Cc1cc(O)ccc1C(=O)c1sc2cc(O)ccc2c1Oc1ccc(OCCN2CC(CF)C2)cc1` [Compound 2, (3-(4-(2-(3-(fluoromethyl)azetidin-1-yl)ethoxy)phenoxy)-6-hydroxybenzo[b]thiophen-2-yl)(4-hydroxy-2-methylphenyl) methanone], the IC50 in test [1] worked out at 0.5 ± 0.05 nM; in test [2], 7.9 ± 0.15 nM. For the same compound, the Emax in test [1] worked out at 80%; in test [2], 45%.

Regarding `Cc1cc(F)ccc1C(=O)c1sc2cc(O)ccc2c1Oc1ccc(OCCN2CC(CF)C2)cc1` [Compound 4, (4-fluoro-2-methylphenyl)(3-(4-(2-(3-(fluoromethyl)azetidin-1-yl)ethoxy)phenoxy)-6-hydroxybenzo[b]thiophen-2-yl)methanone], the IC50 in test [1] turned out to be 0.3 ± 0.02 nM; in test [2], 0.2 ± 0.02 nM; in test [3], 2.7 ± 0.09 nM. The figures for the Emax in test [1] and in test [2] were 75% and 50%, respectively.

Regarding `Cc1cc(F)cc(C)c1C(=O)c1sc2cc(O)ccc2c1Oc1ccc(OCCN2CC(CF)C2)cc1` [Compound 5, (4-fluoro-2,6-dimethylphenyl)(3-(4-(2-(3-(fluoromethyl)azetidin-1-yl)ethoxy)phenoxy)-6-hydroxybenzo[b]thiophen-2-yl)methanone], the IC50 was 0.41 ± 0.01 nM in test [1], 3.4 ± 0.5 nM in test [2] and 3.5 ± 0.06 nM in test [3]. In addition, the Emax in test [1] turned out to be 70%; in test [2], 55%.

Regarding `Cc1cccc(C)c1C(=O)c1sc2cc(O)ccc2c1Oc1ccc(OCCN2CC[C@@H](CF)C2)cc1` [Compound 9, (R)-(2,6-dimethylphenyl)(3-(4-(2-(3-(fluoromethyl)pyrrolidin-1-yl)ethoxy)phenoxy)-6-hydroxybenzo[b]thiophen-2-yl)methanone], the IC50 in test [1] was determined as 0.1 ± 0.01 nM; in test [2], 0.23 ± 0.06 nM; in test [3] it was 45 ± 15 nM. Moreover, the Emax in test [1] was found to be 85%; in test [2] it was 25%.

For the compound `Cc1cc(F)cc(C)c1C(=O)c1sc2cc(O)ccc2c1Oc1ccc(OC2CN(CCCF)C2)cc1` [Compound 17, (4-fluoro-2,6-dimethylphenyl)(3-(4-((1-(3-fluoropropyl)azetidin-3-yl)oxy)phenoxy)-6-hydroxybenzo[b]thiophen-2-yl)methanone], in test [1], inhibition was half-maximal at 0.55 ± 0.01 nM (IC50) and the Emax was found to be 75%. Moreover, in test [2], the IC50 stood at 0.15 ± 0.06 nM and the Emax is 70%.

Turning to `Cc1ccccc1C(=O)c1sc2cc(O)ccc2c1Oc1ccc(OCCN2CCC2)cc1` [Compound 59, (3-(4-(2-(azetidin-1-yl)ethoxy)phenoxy)-6-hydroxybenzo[b]thiophen-2-yl)(o-tolyl)methanone], the IC50 in test [1] is 0.5 ± 0.05 nM; in test [2] it was 0.31 ± 0.07 nM. In addition, the Emax in test [1] was 70%; in test [2], 35%.

As to `O=C(c1cccc(F)c1)c1sc2cc(O)ccc2c1Oc1ccc(OC2CN(CCCF)C2)cc1` [Compound 66, (3-fluorophenyl)(3-(4-((1-(3-fluoropropyl)azetidin-3-yl)oxy)phenoxy)-6-hydroxybenzo[b]thiophen-2-yl)methanone], in test [1], inhibition was half-maximal at 0.27 ± 0.006 nM (IC50) and the Emax is 70%. Besides, in test [2], it took 0.12 ± 0.03 nM to reach half-maximal inhibition (IC50) and the Emax came to 35%.

Consider `Cc1cc(F)cc(C)c1C(=O)c1sc2cc(O)ccc2c1Oc1ccc(OC2CN(C3CC3)C2)cc1` [Compound 67, (3-(4-((1-cyclopropylazetidin-3-yl)oxy)phenoxy)-6-hydroxybenzo[b]thiophen-2-yl)(4-fluoro-2,6-dimethylphenyl) methanone], for which, in test [1], half-maximal inhibition (IC50) required 0.42 ± 0.04 nM and the Emax was 65%. Moreover, in test [2], the IC50 worked out at 1 ± 0.8 nM and the Emax is 20%.

The IC50 is the concentration that gives 50% inhibition.

These data come from patent US12295939B2, “Substituted benzothiophene analogs as selective estrogen receptor degraders” (The Board of Trustees of the University of Illinois, priority 2018, dated 2025).
